# Results taken from patent publication US7932272B2, “Antifungal agent containing heterocyclic compound” (Eisai R&D Management Co., Ltd., priority 2003, dated 2011).
# What was measured:
# [1] = test system: A. fumigatus Tsukuba strain; experiment: Anti-Aspergillus activity (MIC measurement); type: cell-based; conditions: MIC by visual inspection, 48 hours at 30 to 35° C.
# Protocol: (§1) For the C. albicans E81022 strain, a fungal suspension from a standing culture for 48 hours at 30° C. in a Sabouraud dextrose liquid culture medium (SDB) was diluted 10,000-fold with a 1.3-fold concentrated SDB to adjust to a fungal suspension of 1 to 2×10^4 cells/ml. For the A. fumigatus Tsukuba strain, −80° C. stored strain was diluted 1,000-fold with a 1.3-fold concentrated SDB to adjust to a fungal suspension of 2 to 3×10^3 cells/ml.
# (§2) Using a U-bottomed 96 well plate, 8 samples/plate (A to H) of sample dilution solutions were prepared. On the 3rd row of each plate was dispensed 240 μl of sterilized and distilled water, and on the 2nd and 4th to 12th rows were dispensed 125 μl of 4% dimethylsulfoxide solution. Weighed sample was dissolved in dimethylsulfoxide to prepare a 2.5 to 20 mg/ml solution, 10 μl of this solution was then added to the 3rd row of the prepared plate, and 10 steps of two-fold step dilutions (125 μl of solution+125 μl of 4% dimethylsulfoxide) were performed on the plate.
# (§3) The fungal suspension preprared in (1) was used in the amount of 75 μl/well to inoculate a V-bottomed or flat-bottomed 96 well plate containing 25 μl/well of test compound dilution solution prepared in (2), and a standing culture was carried out aerobically for 48 hours at 30 to 35° C.
# [2] = test system: C. albicans E81022 strain; experiment: Anti-Candida activity (MIC measurement); type: cell-based; conditions: E81022STRAIN, MIC by visual inspection, C. albicans E81022, 48 hours at 30 to 35° C.
# Protocol: as §1, §2, §3
MIC [1],MIC [2],Structure (SMILES)
0.78 µg/mL,0.2 µg/mL,"Nc1ncccc1C(=O)NCc1ccc(Cc2ccccc2)o1 [Example A-5, 2-Amino-N-(5-benzyl-furan-2-ylmethyl)-nicotinamide]"
6.25 µg/mL,3.13 µg/mL,"Nc1ncccc1C(=O)NCc1ccc(CCNc2ccccc2)o1 [Example A-8, 2-Amino-N-(5-(2-phenylamino-ethyl)-furan-2-ylmethyl)-nicotinamide]"
3.13 µg/mL,0.78 µg/mL,"Nc1ncccc1C(=S)NCc1ccc(OCc2ccccc2)cc1 [Example A-22, 2-Amino-N-(4-benzyloxy-benzyl)-thionicotinamide]"
3.13 µg/mL,0.39 µg/mL,"Cc1ccc(C(=O)NCc2ccc(OCc3ccccc3)cc2)c(N)n1 [Example A-37, 2-Amino-N-(4-benzyloxy-benzyl)-6-methyl-nicotinamide]"
1.56 µg/mL,1.56 µg/mL,"Nc1ccc(C(=O)NCc2ccc(OCc3ccccc3)cc2)cn1 [Example A-39, 6-Amino-N-(4-benzyloxybenzyl)-nicotinamide]"
6.25 µg/mL,3.13 µg/mL,"Nc1nc(NCCCn2nccn2)ccc1C(=O)NCc1ccc(Oc2ccccc2)s1 [Example A-81, 2-Amino-N-(5-phenoxy-thiophen-2-ylmethyl)-6-(3-[1,2,3]-triazol-2-yl-propylamino)-nicotinamide]"
1.56 µg/mL,0.2 µg/mL,"Nc1nc(NCc2ccco2)ccc1C(=O)NCc1ccc(Oc2ccccc2)s1 [Example A-82, 2-Amino-6-(furfurylamino)-N-(5-phenoxy-thiophen-2-ylmethyl)-nicotinamide]"
–,3.13 µg/mL,"Nc1ccc(NCCNc2ccc(C(=O)NCc3ccc(Oc4ccccc4)s3)c(N)n2)cc1 [Example A-92, 2-Amino(2-(4-amino-phenylamine)-ethylamino)-N-(5-phenoxy-thiophen-2-ylmethyl)-nicotinamide]"
1.56 µg/mL,0.39 µg/mL,"CC(=O)c1ccc(C(=O)NCc2ccc(Oc3ccccc3)s2)c(N)n1 [Example A-98, 6-Acetyl-2-amino-N-(5-phenoxy-thiophen-2-ylmethyl)-nicotinamide]"
6.25 µg/mL,3.13 µg/mL,"Nc1nc(NCC(=O)O)ccc1C(=O)NCc1ccc(Oc2ccccc2)s1 [Example A-99, (6-Amino-5-((5-phenoxy-thiophen-2-ylmethyl)-carbamoyl)-pyridin-2-ylamino)-acetic acid]"
0.39 µg/mL,0.1 µg/mL,"Nc1nc(Cl)ccc1C(=O)NCc1ccc(Oc2ccccc2)s1 [Example A-101, 2-Amino-6-chloro-N-(5-phenoxy-thiophen-2-ylmethyl)-nicotinamide]"
6.25 µg/mL,3.13 µg/mL,"Nc1nc(OCCO)ccc1C(=O)NCc1ccc(Oc2ccccc2)s1 [Example A-112, 2-Amino-6-(2-hydroxyethoxy)-N-(5-phenoxy-thiophen-2-ylmethyl)-nicotinamide]"
3.13 µg/mL,0.39 µg/mL,"COc1ccc(C(=O)NCc2ccc(Oc3ccccc3)s2)c(N)n1 [Example A-116, 2-Amino-6-methoxy-N-(5-phenoxy-thiophen-2-ylmethyl)-nicotinamide]"
–,1.56 µg/mL,"COCCCc1ccc(C(=O)NCc2ccc(Oc3ccccc3)s2)c(N)n1 [Example A-124, 2-Amino-6-(3-methoxy-propyl)-N-(5-phenoxy-thiophen-2-ylmethyl)-nicotinamide]"
6.25 µg/mL,0.78 µg/mL,"Nc1nc(NCc2ccccc2)ccc1C(=O)NCc1ccc(Oc2ccccc2)s1 [Example A-126, 2-Amino-6-benzylamino-N-(5-phenoxy-thiophen-2-ylmethyl)-nicotinamide]"
6.25 µg/mL,1.56 µg/mL,O=C(O)CCNc1ncccc1C(=O)NCc1ccc(Oc2ccccc2)s1 [Example A-131]
–,1.56 µg/mL,"CNc1ncccc1C(=O)NCc1ccc(Oc2ccccc2)s1 [Example A-136, 2-Methylamino-N-(5-phenoxy-thiophen-2-ylmethyl)-nicotinamide]"

MIC [1],MIC [2],Structure (SMILES)
1.56 µg/mL,1.56 µg/mL,"Nc1ccc(C(=O)NCc2ccc(Oc3ccc(F)cc3)s2)cn1 [Example A-139, 6-Amino-N-(5-(4fluoro-phenoxy)-thiophen-2-ylmethyl)-nicotinamide]"
–,0.78 µg/mL,"Cc1sc(CNC(=O)c2cccnc2N)cc1Oc1ccccc1 [Example A-170, 2-Amino-N-(5-methyl-4-phenoxy-thiophen-2-ylmethyl)-nicotinamide]"
1.56 µg/mL,0.2 µg/mL,"Nc1ncccc1C(=O)NCc1cc(Cl)c(Oc2ccccc2)s1 [Example A-171, 2-Amino-N-(4-chloro-5-phenoxy-thiophen-2-ylmethyl)-nicotinamide]"
6.25 µg/mL,3.13 µg/mL,"Nc1ncncc1C(=O)NCc1ccc(Oc2ccccc2)s1 [Example B-1, 4-Amino-pyrimidine-5-carboxylic acid (5-phenoxy-thiophen-2-ylmethyl)-amide]"
–,0.1 µg/mL,Nc1nc2c(cc1C(=O)NCc1ccc(Oc3ccccc3)s1)CCC2 [Example C-1]
0.78 µg/mL,0.78 µg/mL,"O=C(NCc1ccc(OCc2ccccc2)cc1)c1ccc2ncccc2n1 [Example D-2, [1.5]Naphthylidine-2-carboxylic acid 4-benzyloxybenzylamide]"
0.2 µg/mL,0.2 µg/mL,"O=C(NCc1ccc(OCc2ccccc2)cc1)c1ccc2ncccc2c1 [Example E-8, quinoline-6-carboxylic acid 4-benzyloxybenzylamide]"
1.56 µg/mL,0.39 µg/mL,"O=C(NCc1cccc(Oc2ccccc2)c1)c1ccc2ncccc2c1 [Example E-11, Quinoline-6-carboxylic acid 3-phenoxybenzylamide]"
1.56 µg/mL,0.78 µg/mL,"O=C(NCc1cccc(-c2ccccc2)c1)c1ccc2ncccc2c1 [Example E-13, Quinoline-6-carboxylic acid (biphenyl-3-ylmethyl)-amide]"
1.56 µg/mL,0.78 µg/mL,"O=C(Cc1cccc(Oc2ccccc2)c1)Nc1ccc2ncccc2c1 [Example E-19, 2-(3-Phenoxy-phenyl)-N-quinolin-6-yl-acetamide]"
–,1.56 µg/mL,"O=C(NCc1ccc(Nc2ccccc2)cc1)c1ccc2ncccc2c1 [Example E-25, Quinoline-6-carboxylic acid 4-phenylamino-benzylamide]"
–,0.39 µg/mL,"O=C(NCc1cccc(OCC2CC2)c1)c1ccc2ncccc2c1 [Example E-43, Quinoline-6-carboxylic acid 3-cyclopropylmethoxy-benzylamide]"
–,3.13 µg/mL,"CO/N=C(\NCc1ccc(OCc2ccccc2)cc1)c1ccc2ncccc2c1 [Example E-44, N-(4-Benzyloxy-benzyl)-N′-methoxy-quinoline-6-carboxamidine]"
3.13 µg/mL,3.13 µg/mL,"N#C/N=C(\NCc1ccc(OCc2ccccc2)cc1)c1ccc2ncccc2c1 [Example E-45, N-(4-Benzyloxy-benzyl)-N′-cyano-quinoline-6-carboxamidine]"
–,3.13 µg/mL,"O=C(NCc1cccc(Oc2ccccc2)c1)c1ccc2nnccc2c1 [Example F-1, Cinnoline-6-carboxylic acid 3-phenoxy-benzylamide]"
–,6.25 µg/mL,"O=C(NCc1cccc(Oc2ccccc2)c1)c1ccc2cnccc2c1 [Example G-1, Isoquinoline-6-carboxylic acid 3-phenoxybenzylamide]"
6.25 µg/mL,–,"O=C(NCc1cccc(Oc2ccccc2)c1)c1ccc2[nH]ccc2c1 [Example V-1, 1H-Indole-5-carboxylic acid 3-phenoxybenzylamide]"
